Literature values, collected in patent publication US8163703B2, “Hepatitis C therapies” (BioCryst Pharmaceuticals, Inc., priority 2005, dated 2012).

Tested on: HCV
Details: ribavirin alone

NC(=O)c1ncn([C@@H]2O[C@H](CO)[C@@H](O)[C@H]2O)n1 [Ribavirin, 1-β-D-ribofuranosyl-1-1,2,4-triazole-3-carboxamide]
patients in whom serum amino transferase levels are reduced to normal: 40%
